From patent publication US11634381B2, “RUNX2 transcription factor inhibitors and uses thereof” (University of Maryland, Baltimore, priority 2015, dated 2023)

Experiments:
Type in all cases: cell-based, human
[1] = test system: MCF7-tet-off (-Doxy), MDA-231, MDA-468 and MCF7 cells; experiment: Tumorsphere assay; conditions: 50 μM
Method: Single cell suspensions (100,000 cells/well) wereplatedin 6-well ultra-low attachment plates (Corning) with 5 ml of EGM-2 supplemented with bullet kit (Lonza) and 2% FBS. compound 1 (50 μM) was added at the day of the plating or 4 days after plating. Tumorspheres were continuously photographed for 18 days and counted at the final day. Spheres were counted at 9 fields per well and averaged from triplicate.

[2] = test system: MCF7-tet-off or MDA-231 cells; experiment: Calcein-AM viability assay; conditions: over 24 hrs
Method: In FIGS. 9A-9C compound 1 was added at the initial day of cell plating. Tumorspheres of MCF7-tet-off (−Doxy) cells were photographed for 18 days at ×40 and ×100 magnifications (FIG. 9A), and counted at the final day at ×40 magnification (FIG. 9C). Tumorspheres of MDA-231, MDA-468 and MCF7 cells at day 7 are shown (FIG. 9B). Spheres of MDA-231 and MCF7 cells were counted at day 18 with ×20 magnification. Spheres of vehicle-treated MDA-468 cells were counted at day 7 with ×20 magnification as they became fragile and disrupted 7 days after incubation. In FIG. 9C sphere number (No.) was counted from 9 fields per well. Data presented as mean±SD. Experiments were done in triplicate and repeated three times. *, P<0.05 compared to +Doxy; ^#, P<0.05 compared to −Doxy with vehicle treatment. Box, RUNX2 induction upon Doxy removal from MCF7-tet-off cells (−D). In FIG. 9D to ensure robust sphere formation, compound 1 was added 4 days after cell plating (D4+), and cells were further incubated for 5 days (D5) or for 7 days (D7). In FIG. 9E the cellular invasive ability of MCF7-tet-off cells (left) was evaluated by the 96 Well BME Cell Invasion Assay and xCELLigence systems in vitro, respectively. In parallel, similar amount of cells were plated in separate plates and treated with compound 1 for 24 hrs, and Calcein-AM assay was performed (right). […]

[3] = test system: COX-2 and NF-κb promoter; experiment: Luciferase reporter assay of promoters without Runt binding sequences; conditions: MCF7-RUNX2 and MCF7-Empty cells, 0˜50 mM, 24 hrs
Method: Cells were plated in 96-well plates (30,000 cells/well) and incubated overnight. Cells were co-transfected with indicated luciferase-reporter plasmids (25 ng/well) and pSV-Renilla-Luc (Promega) (15 ng/well) for 6 hrs and compound 1 ([…]) was further treated for 18-48 hrs. COX-2 (P2-274)-Luc (−170bp˜+104bp) and control plasmids (PXP2-Luc) were kindly provided byDr. Miguel A. Iñiguez (Universidad Autónoma de Madrid, Spain), and pNF-kb-Luc was from Dr. Hancai Dan (University of Maryland). Luciferase assay was performed using the Dual-Glo Luciferase Assay Systems as per manufacturer's recommendation (Promega).

[4] = test system: BC cells; experiment: Glucose consumption and lactate production
Method: For measurement of glucose level, cells (100,000/well) were plated in 24-well plates and incubated overnight. Cells were treated with compound 1 (50 μM) in phenol red-free growth medium and further incubated for 6 hrs or 24 hrs. The culture medium was collected and filtered through a 0.22 μm pore membrane. Glucose level in the medium was measured using Amplex Red Glucose/Glucose Oxidase Assay Kit (Invitrogen) as per manufacturer's instructions. For lactate level, cells were treated with compound 1 for 24 hrs, and the medium was washed and replaced with HEPES-buffered Krebs-Ringer solution (Boston BioProducts) supplemented with 10 mM Glucose. Cells were incubated for 30 min, and the medium was collected and filtered through a 0.22 μm pore membrane. Lactate level in the medium was measured using Lactate Assay Kit (Sigma-Aldrich) as per manufacturer's instructions. Cell growth assays using crystal violet staining were performed to verify equal number of cells and no significant difference was found in 24 hrs of compound 1 treatment (data not shown).

[5] = test system: RUNX2 responsive genes; experiment: Q-RT-PCR of RUNX2 responsive genes; conditions: 50 μM
Method: Total RNA was extracted using TRIzol (Life Technologies). One […] of total RNA was reverse transcribed with oligo-(dT) primer using the SuperScript first-strand synthesis system (Invitrogen) to synthesize cDNA. One μl of each cDNA was used for real-time RT-PCR using QuantiFast SYBR Green PCR Kit […]. mRNA expression of gene of interest relative to β-actin was calculated based on the threshold cycle (Ct) as 2^−D(DCt) method.

[6] = test system: breast cancer cells; experiment: Cell growth assay (crystal violet); conditions: for inhibition at 50 µM: Homo sapiens, 72 hrs
Text: Cells wereplated on 96-well (30,000 cells/well) or 24-well plates (50,000 cells/well). […] Cells were stained with crystal violet (0.5% in Methanol:Acetic Acid=3:1) and washed with PBS. Crystal violet was solubilized in DMSO and measured in a microplate reader at 592 nm.

[7] = test system: MDA-231, MCF7, MDA-468, BT474 cells; experiment: Combination of compound 1 and CDK inhibitors, cell proliferation and colony assays
[8] = test system: MDA-231 cells; experiment: Cell-electrode impedance invasion assay (xCELLigence); conditions: MDA-231, 50 μM, 48 hrs
Method: Real-time monitoring of cellular invasion was examined using an electrical impedance assay with an xCELLigence RTCA SP real-time cell-sensing device (Roche Applied Science). Matrigel (20 μl of 0.5 mg/ml) was pre-coated in the upper chamber of CIM plates and polymerized for 4 h and MDA-231 cells (75,000) were seeded onto wells containing growth medium with vehicle (0.1% DMSO) or compound 1 (50 μM). Impedance-based signals were measured every 5 minutes for 48 hrs according to the manufacturer's instructions. The invasive activity is expressed as the cell index (mean±SD) of duplicate wells. Three independent experiments were performed. In parallel, MDA-231 cells were plated onto wells with serum-free medium and the assay was performed.

`O=C(O)C1C2C=CC(C2)C1C(=O)Nc1ccc(Cl)c(Cl)c1` (centres unmarked) [compound 1, 3-(N-(3,4-dichlorophenyl)carbamoyl)-5-norbornene-2-carboxylic acid] was tested, and the “size and number of tumorspheres” value [1] was “dramatically decreased”, the viability [2] was “little effect” and the “COX-2 (P2-274)-Luc or pNF-κb-Luc promoter activities” value [3] was “no inhibitory effect”. For the same compound, the lactate concentration ([4]; 50 μM) was “significantly reduced”, the glucose consumption ([4]; MDA-231 cells) was “Slight but insignificant inhibition” and the “glucose level in the medium” value ([4]; RUNX2-expressing MCF7 and T47D, MCF7 and MDA-468 cells, 6 hrs and 24 hrs) was “increased”. The “level of Sirt6 mRNA” value ([5]; MDA-231 cells, 6 hrs) was “increased”, the “transcriptional levels of Glut-1 and LDHA” value ([5]; MDA-231 cells, 6 hrs) was “reduced” and the “mRNA expression levels of MMP13, VEGF, and MMP9” value ([5]; ectopic RUNX2-expressing MCF7 and T47D cells, 72 hrs) was “repressed”. For the same compound, the “RUNX2-increased mRNA level of Glut-1 and LDHA” value ([5]; ectopic RUNX2-expressing T47D and MCF7 cells, 72 hrs) was “significantly inhibited”, the “inhibition in cell viability” value ([6]; 0˜100 μM, over 24 hrs) was “no significant inhibition” and the cell growth inhibition ([6]; 0˜100 μM, over 72 hrs) was “dose- and time-dependent cell growth inhibition”. The inhibition at 50 µM ([6]; MDA-MB-468 cells) was over 50%, the inhibition at 50 µM ([6]; majority of TNBC and luminal type BC cells) was under 50% and the “cell proliferation relative to vehicle controls” value ([6]; ectopic RUNX2-expressing MCF7 and T47D cells, 7 days) was “dramatic decrease”. For the same compound, the “growth inhibition of BT474 cells” value [7] was “sensitive” and the “cell index (mean±SD)” value [8] was 1.6636±0.1845.
